Entries after “also recorded” stand apart in the source; their conditions may differ. Where two headings read alike, the source gives them in different places.
Columns and labels:
[1] = test system: chronic renal failure induced by 5/6 nephrectomy in rats; format: in vivo, Male Wistar rats
Experimental: The model on chronic renal failure induced by partial renal ablation in rats was set up according to the Guidelines of Pre-clinic Research for New Drugs. Male Wistar rats with initial body weights of 200 g, anesthetized with 35 mg/kg of pentobarbital i.p., the right kidney was removed, and the upper and lower pole […] of the left kidney were resected, stop bleeding, closed the abdominal and sutured. Four weeks following surgery, the BUN, creatinine and urinary protein in rats were determined. […] Rats were randomly divided into seven groups, 30/group, with sham, model, Benazepril (4 mg/kg/day) and Losartan (10 mg/kg/day) as positive control, and compound 149 groups (7.5 mg/kg/day, 15 mg/kg/day and 30 mg/kg/day, respectively). All the groups were administered intragastrically, once per day and 6 (six) times per week, till 16 weeks post surgery. Body weights were weighed to observe the growth of the rats. The above indexes were determined every 4 weeks up to the 16th week following the initiation of drug administration, and at each time, a number of animals were sacrificed and the kidneys were harvested for pathological analysis. Pathological lesions in chronic renal failure models are mainly glomerulosclerosis and interstitial fibrosis. According to the damage extents, glomerulosclerosis is divided into five grades (0 IV). 0 grade means no glomerulus pathological changes at all, and IV grade means ultimately glomerular sclerosis and glassy pathological changes.

[2] = test system: kidney tubulointerstitial fibrosis caused by unilateral ureteral obstruction (UUO) in rats; assay: Inhibition of kidney tubulointerstitial fibrosis caused by unilateral ureteral obstruction (UUO) in rats; format: in vivo, Male Wistar rats; conditions: for BUN / Scr. (serum creatinine): oral for 16 days
Experimental: Male Wistar rats with initial body weights of 180˜230 g were used. Unilateral ureteral obstruction was performed under pentobarbital anesthesia (35 mg/kg) and sterile conditions. Via a midline incision, the left ureteral was ligated. Sham surgery was performed by making a midline incision but leaving ureteral intact. Following surgery, rats were randomly divided into sham, model, Benazepril (4 mg/kg/day) and Losartan (10 mg/kg/day) as positive control, and compound 149 (5 mg/kg/day, 10 mg/kg/day and 20 mg/kg/day). Starting 2 day before surgery, Benazepril, Losartan and compound 149 were administered for 16 days orally. BUN and creatinine in serum were determined in the 11th and 16th day (Table 6) following initiation of Benazepril, Losartan and compound 149 treatment, at which time animals were killed and the kidneys were harvested. Tissues were dissected, weighed, fixed in 10% formaldehyde and embedded in paraffin wax for pathological analysis.

[3] = Primary acute toxicity test; format: in vivo; conditions: mice
Experimental: 5 g/kg and 10 g/kg of compound 149 were administered orally to mice once and observed for 14 days. Body weights of 48 hours after administration in mice were no different. At 14th day after administration, the mouse average body weights in 5 g/kg and 10 g/kg groups increased 7 g and 5 g respectively. There was no any other different for every animal and no death were observed.

[4] = test system: Salmonella typhimurium TA97, TA98, TA100 and TA102; assay: Ames test; format: cell-based; conditions: 0.5-5000.0 μg/plate, presence or absence of S9
Experimental: His^− type Salmonella typhimurium TA97, TA98, TA100 and TA102 were employed. Concentration of the test compound was 0.5, 5.0, 50.0, 500.0, 5000.0 μg/plate. S9 was the microsome component of liver homogenate of a rat weighted 200 g. The test compound 149 was tested in the presence or absence of S9.
According to the Salmonella typhimurium/mammalian microsome enzyme mutagenic test method revised by Ames (1983), metabolism activated or non-metabolism activated plate incorporation assay was conducted on compound 149, and the strain which passed the assay was seeded to the culture medium and incubated at 37° C. under shaking for 15 hours. 100 μl compound solutions with various concentrations were added to 0.1 ml of the culture liquid, and then S9 mixture or phosphate buffer was added, and the mixtures were incubated in a 37° C. water bath for 20 minutes. After that, 2 ml of upper layer agar was added, mixed well and poured into a plate with lower layer agar and incubated at 37° C. for 48 hours. The number of the colonies in each plate was counted.

[5] = 8th week after administration (12 weeks after nephrectomy), 7.5 mg/kg
[6] = 8th week after administration (12 weeks after nephrectomy), 15 mg/kg
[7] = 8th week after administration (12 weeks after nephrectomy), 30 mg/kg
[8] = 8th week after administration (12 wk after nephrectomy), 7.5 mg/kg
[9] = 8th week after administration (12 wk after nephrectomy), 15 mg/kg
[10] = 8th week after administration (12 wk after nephrectomy), 30 mg/kg
[11] = 12th week after administration (16 weeks after nephrectomy), 7.5 mg/kg
[12] = 12th week after administration (16 weeks after nephrectomy), 15 mg/kg
[13] = 12th week after administration (16 weeks after nephrectomy), 30 mg/kg
[14] = 12th week after administration (16 wk after nephrectomy), 7.5 mg/kg
[15] = 12th week after administration (16 wk after nephrectomy), 15 mg/kg
[16] = 12th week after administration (16 wk after nephrectomy), 30 mg/kg

Cc1c(O)c([N+](=O)[O-])cc2cc(C(=O)Nc3ccc(O)c(C(=O)O)c3)c(=O)oc12 [Compound 149, 3-(3′-carboxy-4′-hydroxy-phenylamidocarbonyl)-6-nitro-7-hydroxy-8-methyl-coumarin]
various parameters (BUN, Cre, TGF-β1, Ang II) compared with the positive controls Benazepril and Losartan ([1]; 5/6 nephrectomy rats): all better than those of the Benazepril group and are equivalent to those of the Losartan group
BUN [1, 5]: 22.35 ± 3.120 mg/dL
serum creatinine (Scr.) [1, 5]: 2.14 ± 0.500 mg/dL
BUN [1, 6]: 26.04 ± 4.234 mg/dL
serum creatinine (Scr.) [1, 6]: 1.80 ± 0.550 mg/dL
BUN [1, 7]: 30.54 ± 11.697 mg/dL
serum creatinine (Scr.) [1, 7]: 1.89 ± 0.184 mg/dL
AII (Angiotensin II) [1, 8]: 63.9 ± 13.2 pg/mL
UP (urinary protein) [1, 8]: 30.1 ± 16.6 mg/day
serum TGF-β1 [1, 8]: 20.0 ± 6.7 ng/mL
AII (Angiotensin II) [1, 9]: 49.9 ± 21.3 pg/mL
UP (urinary protein) [1, 9]: 30.4 ± 16.2 mg/day
serum TGF-β1 [1, 9]: 18.6 ± 12.2 ng/mL
AII (Angiotensin II) [1, 10]: 41.0 ± 12.5 pg/mL
UP (urinary protein) [1, 10]: 34.3 ± 12.1 mg/day
serum TGF-β1 [1, 10]: 18.9 ± 10.1 ng/mL
Glomerulosclerosis Grade (%): 0 ([1]; 8 wk after ad., 7.5 mg/kg): 15.7 ± 19.0%
Glomerulosclerosis Grade (%): I ([1]; 8 wk after ad., 7.5 mg/kg): 24.0 ± 21.1%
Glomerulosclerosis Grade (%): II ([1]; 8 wk after ad., 7.5 mg/kg): 30.0 ± 20.8%
Glomerulosclerosis Grade (%): III ([1]; 8 wk after ad., 7.5 mg/kg): 23.2 ± 28.5%
Glomerulosclerosis Grade (%): IV ([1]; 8 wk after ad., 7.5 mg/kg): 8.0 ± 13.0%
Glomerulosclerosis Total Grade ([1]; 8 wk after ad., 7.5 mg/kg): 5.7 ± 2.9
Glomerulosclerosis Grade (%): 0 ([1]; 8 wk after ad., 15 mg/kg): 37.5 ± 29.3 %
Glomerulosclerosis Grade (%): I ([1]; 8 wk after ad., 15 mg/kg): 27.5 ± 16.3%
Glomerulosclerosis Grade (%): II ([1]; 8 wk after ad., 15 mg/kg): 18.8 ± 9.9%
Glomerulosclerosis Grade (%): III ([1]; 8 wk after ad., 15 mg/kg): 13.3 ± 20.7%
Glomerulosclerosis Grade (%): IV ([1]; 8 wk after ad., 15 mg/kg): 2.9 ± 8.2%
Glomerulosclerosis Total Grade ([1]; 8 wk after ad., 15 mg/kg): 3.9 ± 1.7
Glomerulosclerosis Grade (%): 0 ([1]; 8 wk after ad., 30 mg/kg): 28.3 ± 20.8%
Glomerulosclerosis Grade (%): I ([1]; 8 wk after ad., 30 mg/kg): 34.2 ± 23.0%
Glomerulosclerosis Grade (%): II ([1]; 8 wk after ad., 30 mg/kg): 7.5 ± 8.8 %
Glomerulosclerosis Grade (%): III ([1]; 8 wk after ad., 30 mg/kg): 17.5 ± 30.7%
Glomerulosclerosis Grade (%): IV ([1]; 8 wk after ad., 30 mg/kg): 6.7 ± 13.4%
Glomerulosclerosis Total Grade ([1]; 8 wk after ad., 30 mg/kg): 4.9 ± 3.5
BUN [1, 11]: 39.42 ± 4.686 mg/dL
serum creatinine (Scr.) [1, 11]: 2.73 ± 0.78 mg/dL
BUN [1, 12]: 37.32 ± 5.467 mg/dL
serum creatinine (Scr.) [1, 12]: 2.63 ± 0.38 mg/dL
BUN [1, 13]: 36.60 ± 5.422 mg/dL
serum creatinine (Scr.) [1, 13]: 2.10 ± 0.71 mg/dL
AII (Angiotensin II) [1, 14]: 48.3 ± 48.5 pg/mL
UP (urinary protein) [1, 14]: 66.7 ± 38.8 mg/day
serum TGF-β1 [1, 14]: 13.6 ± 7.1 ng/mL
AII (Angiotensin II) [1, 15]: 41.3 ± 28.4 pg/mL
UP (urinary protein) [1, 15]: 52.3 ± 34.4 mg/day
serum TGF-β1 [1, 15]: 12.3 ± 7.7 ng/mL
AII (Angiotensin II) [1, 16]: 19.2 ± 9.19 pg/mL
UP (urinary protein) [1, 16]: 48.2 ± 31.6 mg/day
serum TGF-β1 [1, 16]: 11.6 ± 6.7 ng/mL
Glomerulus pathological scores, compared with the model group ([1]; 12 weeks after nephrectomy (8 weeks since administration), compound 149 30 mg/kg, Losartan 10 mg/kg/day): less than that of the model group significantly
rates of 0 grade glomerylus in residual kidney, compared with the model group ([1]; 12 weeks after nephrectomy (8 weeks since administration), compound 149 30 mg/kg, Losartan 10 mg/kg/day, P<0.05): higher than that of the model group with significant difference
Glomerulosclerosis Grade (%): 0 ([1]; 12 wk after ad., 7.5 mg/kg): 0%
Glomerulosclerosis Grade (%): I ([1]; 12 wk after ad., 7.5 mg/kg): 2.3 ± 6.3%
Glomerulosclerosis Grade (%): II ([1]; 12 wk after ad., 7.5 mg/kg): 37.1 ± 16.0%
Glomerulosclerosis Grade (%): III ([1]; 12 wk after ad., 7.5 mg/kg): 51.4 ± 8.6%
Glomerulosclerosis Grade (%): IV ([1]; 12 wk after ad., 7.5 mg/kg): 13.8 ± 20.6%
Glomerulosclerosis Total Grade ([1]; 12 wk after ad., 7.5 mg/kg): 8.6 ± 1.9
Glomerulosclerosis Grade (%): 0 ([1]; 12 wk after ad., 15 mg/kg): 0%
Glomerulosclerosis Grade (%): I ([1]; 12 wk after ad., 15 mg/kg): 8.1 ± 14.1%
Glomerulosclerosis Grade (%): II ([1]; 12 wk after ad., 15 mg/kg): 38.1 ± 27.4%
Glomerulosclerosis Grade (%): III ([1]; 12 wk after ad., 15 mg/kg): 46.2 ± 26.1%
Glomerulosclerosis Grade (%): IV ([1]; 12 wk after ad., 15 mg/kg): 9.1 ± 12.6%
Glomerulosclerosis Total Grade ([1]; 12 wk after ad., 15 mg/kg): 7.7 ± 1.7
Glomerulosclerosis Grade (%): 0 ([1]; 12 wk after ad., 30 mg/kg): 0%
Glomerulosclerosis Grade (%): I ([1]; 12 wk after ad., 30 mg/kg): 2.0 ± 4.5%
Glomerulosclerosis Grade (%): II ([1]; 12 wk after ad., 30 mg/kg): 71.3 ± 11.5 %
Glomerulosclerosis Grade (%): III ([1]; 12 wk after ad., 30 mg/kg): 26.7 ± 7.8 %
Glomerulosclerosis Grade (%): IV ([1]; 12 wk after ad., 30 mg/kg): 0%
Glomerulosclerosis Total Grade ([1]; 12 wk after ad., 30 mg/kg): 6.7 ± 0.2
number of grade III glomerulus, compared with the model group ([1]; 16 weeks after nephrectomy (12 weeks since administration), compound 149 30 mg/kg (P<0.01), Losartan 10 mg/kg/day (P<0.05)): less than that of the model group significantly
affection with the major organs such as heart, liver, spleen, and lungs (pathological results) ([1]; rat, in vivo): no significant affection
improvement of each biochemical index compared with the positive controls ([2]; UUO rats): more significant than those of the Losartan group, and equivalent to those of the Benazepril group
inflammatory cell infiltration and tubulointerstitial fibrosis (pathological changes) ([2]; UUO rats): significantly attenuated
pathological results compared with the positive controls ([2]; UUO rats): better than Benazepril and equivalent with Losartan
BUN ([2]; UUO rats, 5.0 mg/kg): 23.71 ± 4.17 mg/dL
Scr. (serum creatinine) ([2]; UUO rats, 5.0 mg/kg): 1.58 ± 0.49 mg/kg
BUN ([2]; UUO rats, 10.0 mg/kg): 20.76 ± 1.56 mg/dL
Scr. (serum creatinine) ([2]; UUO rats, 10.0 mg/kg): 1.61 ± 0.36 mg/kg
BUN ([2]; UUO rats, 20.0 mg/kg): 20.77 ± 2.04 mg/dL
Scr. (serum creatinine) ([2]; UUO rats, 20.0 mg/kg): 1.60 ± 0.14 mg/kg
overall result in the renal interstitial fibrosis model compared with the positive controls ([2]; unilateral ureteral ligation in rats): better than Benazepril and corresponds to (slightly better than) Losartan
death ([3]; 5 g/kg and 10 g/kg, observed for 14 days): no death
increase of average body weights at 14th day after administration ([3]; oral once, 5 g/kg): 7 g
Body weights of 48 hours after administration ([3]; oral once, 5 g/kg and 10 g/kg): no different
increase of average body weights at 14th day after administration ([3]; oral once, 10 g/kg): 5 g
mutagenesis (Ames test result) [4]: no mutagenesis; also recorded: negative
number of colony formation of Salmonella Typhimurium TA97, TA98, TA100 and TA102 [4]: did not increase
